Reference: patent US11945822B2, “Pyrazolo-triazine and/or pyrazolo-pxrimidine derivatives as selective inhibitor of cyclin dependent kinase” (QURIENT CO., LTD., priority 2018, dated 2024)

Assays:
CDK3/CycC = target: T1, CDK3/CycC (Homo sapiens, UniProt Q00526); assay: In vitro IC50 profile for CDKs family kinase (33PanQinase radiometric assay); format: biochemical; conditions: CDK7 selectivity profile in CDKs family
T1 construct: purchased ProQinase GmbH
Description: (§1) In Vitro IC50 Profile for CDK7 Inhibitor Among 28 CDKs Family Kinases.
(§2) The IC50 profile of compounds were determined using 28 CDKs family protein kinases through ProQinase GmbH (Freiburg, Germany). All the protocol and materials had been provided by ProQinase GmbH. Briefly, in the process, 90 μl H2O were added to each well of a compound dilution plate. To minimize potential precipitation, the H2O was added to the plate only a few minutes before the transfer of the compound solutions into the assay plates. The plate was shaken thoroughly, resulting in a “compound dilution plate/10% DMSO”. The compound dilution plate(s) were discarded at the end of the working day. For the assays (see below), 5 μl solution from each well of the compound dilution plate were transferred into the assay plates. The final volume of the assay was 50 μl. All compounds were tested at 10 final assay concentrations in the range from 1×10^−05 M to 3×10^−10 M. The final DMSO concentration in the reaction cocktails was 1% in all cases. All protein kinases provided by ProQinase were expressed in Sf9 insect cells or in E. coli as recombinant GST-fusion proteins or His-tagged proteins, either as full-length or enzymatically active fragments. All kinases were produced from human cDNAs and purified by either GSH affinity chromatography or immobilized metal affinity chromatography. The purity of the protein kinases was examined by SDS-PAGE/Coomassie staining, the identity was checked by mass spectroscopy. Kinases from external vendors, Carna Biosciences Inc.; Invitrogen Corp.; and Millipore Corp., were expressed, purified and quality-controlled by virtue of the vendors readings. A radiometric protein kinase assay (^33PanQinase® Activity Assay) was used for measuring the kinase activity of the 28 protein kinases. All kinase assays were performed in 96-well FlashPlates™ from PerkinElmer (Boston, MA, USA) in a 50 μl reaction volume. The reaction cocktails were incubated at 30° C. for 60 minutes. The reaction was stopped with 50 μl of 2% (v/v) H3PO4, plates were aspirated and washed two times with 200 μl 0.9% (w/v) NaCl. Incorporation of ^33Pi was determined with a microplate scintillation counter (Microbeta, Wallac). All assays were performed with a BeckmanCoulter/SAGIAN™ Core System. As part of the data evaluation the low control value from a particular plate was subtracted from the high control value as well as from all 80 “compound values” of the corresponding plate. The residual activity (in %) for each well of a particular plate was calculated by using the following formula: Res. Activity (%)=100×[(cpm of compound−low control)/(high control−low control)]. Results are represented in table (table 10).

CDK20/CycT1 = target: T2, CDK20/CycT1 (Homo sapiens, UniProt Q8IZL9); assay: as above; format: biochemical; conditions: CDK7 selectivity profile in CDKs family
T2 construct: either as full-length or enzymatically active fragments; purchased ProQinase GmbH (Freiburg, Germany)
Description: as §1, §2

CDK5/p35NCK = target: T3, CDK5/p35NCK (Homo sapiens, UniProt Q00535); assay: as above; format: biochemical; conditions: CDK7 selectivity profile in CDKs family
T3 construct: purchased ProQinase GmbH
Description: as §1, §2

HCT116 = assay: Cellular HCT116 viability assay (CellTiter-Glo, 72 hours); format: cell-based; conditions: Homo sapiens, HCT-116
In short: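 Mycoplasma-tested cells, seeded at densities chosen for each line, received compound or DMSO vehicle (under 0.1% final) for 72 hours. Duplicate cultures were then read for viability by CellTiter-Glo luminescence.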

CDK7/Cyclin H/MNAT1 = target: T4, CDK7/Cyclin H/MNAT1 (Homo sapiens, UniProt P50613); assay: Enzymatic assay for CDK7 (FRET based LANCE Ultra kinase assay); format: biochemical
T4 construct: purchased Invitrogen PR6749B
In short: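 Inhibition was measured at Km ATP by time-resolved FRET between a Eu anti-phospho antibody and a phosphorylated ULight peptide. The enzyme was the purified CDK7/cyclin complex, and data were curve-fitted.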

T4 sequence (P50613 whole entry): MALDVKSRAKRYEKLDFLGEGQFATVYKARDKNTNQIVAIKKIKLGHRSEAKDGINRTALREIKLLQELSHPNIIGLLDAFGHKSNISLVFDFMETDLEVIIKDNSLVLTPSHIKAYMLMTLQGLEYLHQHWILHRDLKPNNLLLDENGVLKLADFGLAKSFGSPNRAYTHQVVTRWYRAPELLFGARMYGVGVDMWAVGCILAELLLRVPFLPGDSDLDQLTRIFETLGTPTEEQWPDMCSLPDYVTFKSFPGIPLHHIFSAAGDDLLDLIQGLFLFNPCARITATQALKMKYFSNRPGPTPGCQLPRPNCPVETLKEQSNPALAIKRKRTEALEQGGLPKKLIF
T4 sequence (P51946 whole entry partner): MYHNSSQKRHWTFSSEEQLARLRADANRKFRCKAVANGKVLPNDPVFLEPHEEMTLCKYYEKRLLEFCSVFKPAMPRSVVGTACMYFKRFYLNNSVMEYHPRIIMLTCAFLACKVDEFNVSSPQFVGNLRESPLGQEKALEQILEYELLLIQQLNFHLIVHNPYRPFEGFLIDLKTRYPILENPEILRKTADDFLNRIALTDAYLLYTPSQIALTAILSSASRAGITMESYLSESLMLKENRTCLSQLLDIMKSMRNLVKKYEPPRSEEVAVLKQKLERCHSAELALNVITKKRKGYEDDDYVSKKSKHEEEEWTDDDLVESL
T4 sequence (P51948 whole entry partner): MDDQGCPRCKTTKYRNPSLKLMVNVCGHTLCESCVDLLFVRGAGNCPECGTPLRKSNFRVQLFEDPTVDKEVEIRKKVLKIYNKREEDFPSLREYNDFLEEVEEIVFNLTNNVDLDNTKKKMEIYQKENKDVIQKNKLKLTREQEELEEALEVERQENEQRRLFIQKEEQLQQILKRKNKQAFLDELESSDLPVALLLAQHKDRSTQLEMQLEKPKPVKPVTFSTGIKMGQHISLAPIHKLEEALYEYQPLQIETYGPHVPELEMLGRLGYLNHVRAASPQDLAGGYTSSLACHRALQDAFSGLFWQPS
T3 sequence (Q00535 whole entry): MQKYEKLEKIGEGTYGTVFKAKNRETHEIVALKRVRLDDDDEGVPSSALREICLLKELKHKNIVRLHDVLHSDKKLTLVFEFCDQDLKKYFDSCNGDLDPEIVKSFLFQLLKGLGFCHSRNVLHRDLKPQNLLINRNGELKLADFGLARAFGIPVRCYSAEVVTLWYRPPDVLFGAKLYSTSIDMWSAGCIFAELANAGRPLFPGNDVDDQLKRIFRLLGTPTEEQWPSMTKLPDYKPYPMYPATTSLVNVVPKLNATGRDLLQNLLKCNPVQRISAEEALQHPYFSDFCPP
T3 sequence (Q15078 whole entry partner): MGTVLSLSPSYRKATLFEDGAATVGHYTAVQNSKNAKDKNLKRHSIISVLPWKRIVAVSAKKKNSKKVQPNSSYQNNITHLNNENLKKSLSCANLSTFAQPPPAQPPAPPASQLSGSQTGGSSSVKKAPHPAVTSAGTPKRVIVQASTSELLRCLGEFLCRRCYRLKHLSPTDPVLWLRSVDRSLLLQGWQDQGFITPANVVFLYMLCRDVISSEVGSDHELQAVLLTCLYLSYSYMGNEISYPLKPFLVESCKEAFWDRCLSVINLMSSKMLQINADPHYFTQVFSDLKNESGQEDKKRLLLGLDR
T1 sequence (Q00526 whole entry): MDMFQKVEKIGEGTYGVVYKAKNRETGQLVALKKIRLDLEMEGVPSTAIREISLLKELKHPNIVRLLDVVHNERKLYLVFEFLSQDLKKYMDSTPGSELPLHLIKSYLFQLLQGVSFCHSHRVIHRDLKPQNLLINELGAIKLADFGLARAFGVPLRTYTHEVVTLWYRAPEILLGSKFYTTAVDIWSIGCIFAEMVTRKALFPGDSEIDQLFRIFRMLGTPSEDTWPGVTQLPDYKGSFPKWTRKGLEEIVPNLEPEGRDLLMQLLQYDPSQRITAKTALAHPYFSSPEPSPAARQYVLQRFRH
T1 sequence (P24863 whole entry partner): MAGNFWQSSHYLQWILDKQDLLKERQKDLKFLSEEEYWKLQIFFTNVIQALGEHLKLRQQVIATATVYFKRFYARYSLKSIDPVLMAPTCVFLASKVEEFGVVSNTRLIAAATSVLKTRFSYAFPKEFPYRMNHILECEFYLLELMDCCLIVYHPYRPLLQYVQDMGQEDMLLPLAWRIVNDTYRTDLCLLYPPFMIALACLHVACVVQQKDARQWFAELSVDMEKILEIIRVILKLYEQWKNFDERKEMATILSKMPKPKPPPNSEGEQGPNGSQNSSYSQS
T2 sequence (Q8IZL9 whole entry, the tested form may be a part): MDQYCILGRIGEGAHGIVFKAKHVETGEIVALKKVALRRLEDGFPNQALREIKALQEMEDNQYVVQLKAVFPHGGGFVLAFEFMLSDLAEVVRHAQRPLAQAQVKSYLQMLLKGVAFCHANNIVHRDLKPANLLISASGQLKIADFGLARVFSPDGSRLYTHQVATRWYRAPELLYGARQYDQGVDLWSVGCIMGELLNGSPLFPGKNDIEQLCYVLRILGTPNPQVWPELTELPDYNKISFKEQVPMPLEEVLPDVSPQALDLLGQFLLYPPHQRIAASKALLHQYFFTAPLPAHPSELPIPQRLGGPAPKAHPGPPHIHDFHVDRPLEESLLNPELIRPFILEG
T2 sequence (O60563 whole entry partner, the tested form may be a part): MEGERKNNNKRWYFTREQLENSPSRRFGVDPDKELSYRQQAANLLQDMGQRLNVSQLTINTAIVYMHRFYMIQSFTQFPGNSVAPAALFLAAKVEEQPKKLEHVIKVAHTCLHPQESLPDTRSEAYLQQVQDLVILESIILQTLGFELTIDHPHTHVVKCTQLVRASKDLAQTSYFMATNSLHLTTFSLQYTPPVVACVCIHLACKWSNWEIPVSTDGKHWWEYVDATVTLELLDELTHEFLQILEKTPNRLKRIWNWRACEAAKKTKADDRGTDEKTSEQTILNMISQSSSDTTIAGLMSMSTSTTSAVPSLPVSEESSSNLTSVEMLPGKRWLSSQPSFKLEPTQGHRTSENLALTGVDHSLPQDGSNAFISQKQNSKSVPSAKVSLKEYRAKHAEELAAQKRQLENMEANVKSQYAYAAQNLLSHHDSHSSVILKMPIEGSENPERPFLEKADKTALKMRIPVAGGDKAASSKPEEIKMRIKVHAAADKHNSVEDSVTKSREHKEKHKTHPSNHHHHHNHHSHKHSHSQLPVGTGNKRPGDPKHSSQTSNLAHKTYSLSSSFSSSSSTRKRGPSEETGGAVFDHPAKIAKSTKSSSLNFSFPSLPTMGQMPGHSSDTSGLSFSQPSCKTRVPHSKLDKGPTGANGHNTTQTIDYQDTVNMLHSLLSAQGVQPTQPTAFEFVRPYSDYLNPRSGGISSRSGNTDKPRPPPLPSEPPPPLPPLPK

CC(C)c1cnn2c(NCc3c(Cl)cccc3-n3ccc(C(C)(C)O)n3)nc(N3CCC(N)CC3)nc12 [Compound 210]
IC50 (CDK3/CycC): > 10 µM | IC50 (CDK20/CycT1): > 10 µM | IC50 (CDK5/p35NCK): 4.79 µM | IC50 (HCT116): < 1 µM | CDK1/CDK7: Selectivity of CDK7 inhibition over CDK1 inhibition (CDK7/Cyclin H/MNAT1; CDK7 over CDK1): A (A=greater than 200 fold) | CDK2/CDK7: Selectivity of CDK7 inhibition over CDK2 inhibition (CDK7/Cyclin H/MNAT1; CDK7 over CDK2): A (A=greater than 200 fold) | CDK5/CDK7: Selectivity of CDK7 inhibition over CDK5 inhibition (CDK7/Cyclin H/MNAT1; CDK7 over CDK5): A (A=greater than 200 fold) | IC50 (CDK7/Cyclin H/MNAT1; read-out: CDK7 enzymatic activity (IC50 range)): < 0.1 µM
